The first assay concerns Lone star tick larvae (Amblyomma americanum). The assay can be described thus: Larval immersion microassay against larval-stage Lone star ticks. The settings on record: Amblyomma americanum, 24 h, read-out: activity (percent larval mortality). The procedure:
The larval immersion microassay was conducted as described in detail in White, et al., J. Med. Entomol. […] Compounds of the invention were formulated in dimethylsulfoxide (DMSO) to prepare a stock solution at a concentration of at least 10 mM. […] Approximately 30-50 Lone star tick larvae (Amblyomma americanum) were submerged into each well containing compounds. After a 30 minute immersion period, larvae were removed with a wide-bore pipette tip in 0.05 ml of fluid, dispensed into a commercial paper tissue biopsy bag which was sealed at the top with a plastic dialysis clip, inverted and allowed to air dry for 60 minutes. Bags containing larvae were then incubated at approximately 27 degrees Celsius and >90% relative humidity. After 24 hours, bags were opened, live and dead larvae were counted and percent larval mortality was calculated.
7 contains one chiral center, and is therefore a racemic mixture comprised of approximately 50% R- and 50% S-enantiomer. In vitro and surrogate animal (rat) studies were conducted to evaluate the biological activity of the R- and S-enantiomers of 7. For the in vitro study, larvae of the Lone star tick (Amblyomma americanum) were exposed to 17 (S-enantiomer) and 18 (R-enantiomer) using the larval immersion microassay at a concentration of no greater than 0.3 mM. Following exposure, larvae were removed, transferred to a tissue biopsy bag and incubated at approximately 27 degrees Celsius and >90% relative humidity. After 24 hours, biopsy bags were opened and the numbers of live and dead larvae were determined.
In general, mortality refers to the percentage killed. As for `CC1(C)OB(O)c2ccc(C3=NOC(c4cc(Cl)c(C(F)(F)F)c(Cl)c4)(C(F)(F)F)C3)cc21` (stereo not shown) [Compound 10, 5-(5-(3,5-Dichloro-4-(trifluoromethyl)phenyl)-5-(trifluoromethyl)-4,5-dihydroisoxazol-3-yl)-3,3-dimethyl-benzo[c][1,2]oxaborol-1(3H)-ol], the mortality at 300 µM is not below 80%.
Consider `CC1(C)OB(O)c2ccc(C3=NOC(c4cc(Cl)c(Cl)c(Cl)c4Cl)(C(F)(F)F)C3)cc21` (stereo not shown) [Compound 34, 3,3-Dimethyl-5-(5-(2,3,4,5-tetrachlorophenyl)-5-(trifluoromethyl)-4,5-dihydroisoxazol-3-yl)benzo[c][1,2]oxaborol-1(3H)-ol], for which the mortality at 300 µM was not below 80%.
Still for that read-out and setting: then `CC1(C)OB(O)c2ccc(C3=NOC(c4cc(Cl)cc(C(F)(F)F)c4)(C(F)(F)F)C3)cc21` (stereo not shown) [Compound 6], with not below 80%.
On the same count and under the same terms, next, `Cc1c(Cl)cc(C2(C(F)(F)F)CC(c3ccc4c(c3)C(C)(C)OB4O)=NO2)cc1Cl` (stereo not shown) [Compound 9, 5-(5-(3,5-Dichloro-4-methylphenyl)-5-(trifluoromethyl)-4,5-dihydroisoxazol-3-yl)-3,3-dimethylbenzo[c][1,2]oxaborol-1(3H)-ol]: not below 80%; `COc1c(Cl)cc(C2(C(F)(F)F)CC(c3ccc4c(c3)C(C)(C)OB4O)=NO2)cc1Cl` (stereo not shown) [Compound 22, 5-(5-(3,5-Dichloro-4-methoxyphenyl)-5-(trifluoromethyl)-4,5-dihydroisoxazol-3-yl)-3,3-dimethylbenzo[c][1,2]oxaborol-1(3H)-ol]: not below 80%.
Same read-out and setting: next, `CC1(C)OB(O)c2ccc(C3=NOC(c4cc(C(F)(F)F)cc(C(F)(F)F)c4)(C(F)(F)F)C3)cc21` (stereo not shown) [Compound 14, 5-(5-(3,5-Bis(trifluoromethyl)phenyl)-5-(trifluoromethyl)-4,5-dihydroisoxazol-3-yl)-3,3-dimethylbenzo[c][1,2]oxaborol-1(3H)-ol]: not below 80%; `OB1OCc2cc(C3=NOC(c4cc(Cl)cc(Cl)c4)(C(F)(F)F)C3)ccc21` (stereo not shown) [Compound 1, 5-(5-(3,5-Dichlorophenyl)-5-(trifluoromethyl)-4,5-dihydroisoxazol-3-yl)benzo[c][1,2]oxaborol-1(3H)-ol]: not below 80%.
For `CC1(C)OB(O)c2ccc(C3=NOC(c4cc(Cl)c(F)c(Cl)c4F)(C(F)(F)F)C3)cc21` (stereo not shown) [Compound 35], the mortality at 300 µM was not below 80%.
`CC1(C)OB(O)c2cc(F)c(C3=NOC(c4cc(Cl)cc(Cl)c4)(C(F)(F)F)C3)cc21` (stereo not shown) [Compound 41]: the mortality at 300 µM was not below 80%.
As to `CC1(C)OB(O)c2cc(F)c(C3=NOC(c4cc(Cl)c(Cl)c(Cl)c4)(C(F)(F)F)C3)cc21` (stereo not shown) [Compound 42, 6-Fluoro-3,3-dimethyl-5-(5-(3,4,5-trichlorophenyl)-5-(trifluoromethyl)-4,5-dihydroisoxazol-3-yl)benzo[c][1,2]oxaborol-1(3H)-ol], the mortality at 300 µM was not below 80%.
Same read-out and setting: next, `CC1(C)OB(O)c2ccc(C3=NOC(c4cc(Cl)c(Br)c(Cl)c4)(C(F)(F)F)C3)cc21` (stereo not shown) [Compound 21, 5-(5-(4-Bromo-3,5-dichlorophenyl)-5-(trifluoromethyl)-4,5-dihydroisoxazol-3-yl)-3,3-dimethylbenzo[c][1,2]oxaborol-1(3H)-ol]: not below 80%.
On the same count and under the same terms, next, `CC1(C)OB(O)c2ccc(C3=NO[C@@](c4cc(Cl)c(F)c(Cl)c4)(C(F)(F)F)C3)cc21` [Compound 28, (S)-5-(5-(3,5-Dichloro-4-fluorophenyl)-5-(trifluoromethyl)-4,5-dihydroisoxazol-3-yl)-3,3-dimethylbenzo[c][1,2]oxaborol-1(3H)-ol]: not below 80%.
Same read-out and setting: next, `CC1(C)OB(O)c2ccc(C3=NOC(c4cc(Cl)cc(Cl)c4)(C(F)(F)F)C3)cc21` (stereo not shown) [Compound 2, 5-(5-(3,5-Dichlorophenyl)-5-(trifluoromethyl)-4,5-dihydroisoxazol-3-yl)-3,3-dimethyl-benzo[c][1,2]oxaborol-1(3H)-ol]: not below 80%; `CC1(C)OB(O)c2ccc(C3=NO[C@@](c4cc(Cl)cc(Cl)c4)(C(F)(F)F)C3)cc21` [Compound 3, (S)-5-(5-(3,5-dichlorophenyl)-5-(trifluoromethyl)-4,5-dihydroisoxazol-3-yl)-3,3-dimethyl benzo[c][1,2]oxaborol-1(3H)-ol]: not below 80%; `CC1(C)OB(O)c2ccc(C3=NOC(c4cc(Cl)c(C(F)F)c(Cl)c4)(C(F)(F)F)C3)cc21` (stereo not shown) [Compound 11, 5-(5-(3,5-Dichloro-4-(difluoromethyl)phenyl)-5-(trifluoromethyl)-4,5-dihydroisoxazol-3-yl)-3,3-dimethyl-benzo[c][1,2]oxaborol-1(3H)-ol]: not below 80%.
As for `CC1(C)OB(O)c2ccc(C3=NOC(c4cc(Cl)c(OC(F)(F)F)c(Cl)c4)(C(F)(F)F)C3)cc21` (stereo not shown) [Compound 12, 5-(5-(3,5-Dichloro-4-(trifluoromethoxy)phenyl)-5-(trifluoromethyl)-4,5-dihydro-isoxazol-3-yl)-3,3-dimethylbenzo[c][1,2]oxaborol-1(3H)-ol], the mortality at 300 µM is not below 80%.

Still in this assay, the particulars now being: Amblyomma americanum; concentration of no greater than 0.3 mM; 30 minute immersion; counted after 24 hours; read-out: activity (percent larval mortality).
As for `CC1(C)OB(O)c2ccc(C3=NOC(c4cc(Br)cc(Br)c4)(C(F)(F)F)C3)cc21` (stereo not shown) [Compound 5, 5-(5-(3,5-Dibromophenyl)-5-(trifluoromethyl)-4,5-dihydroisoxazol-3-yl)-3,3-dimethyl-benzo[c][1,2]oxaborol-1(3H)-ol], the mortality at 300 µM was not below 80%.
On the same count and under the same terms, next, `CC1(C)OB(O)c2ccc(C3=NOC(c4cc(F)c(F)c(Cl)c4)(C(F)(F)F)C3)cc21` (stereo not shown) [Compound 25, 5-(5-(3-Chloro-4,5-difluorophenyl)-5-(trifluoromethyl)-4,5-dihydroisoxazol-3-yl)-3,3-dimethylbenzo[c][1,2]oxaborol-1(3H)-ol]: not below 80%.
For `CC1(C)OB(O)c2ccc(C3=NOC(c4cc(F)c(Cl)c(Cl)c4)(C(F)(F)F)C3)cc21` (stereo not shown) [Compound 26, 5-(5-(3,4-Dichloro-5-fluorophenyl)-5-(trifluoromethyl)-4,5-dihydroisoxazol-3-yl)-3,3-dimethylbenzo[c][1,2]oxaborol-1(3H)-ol], the mortality at 300 µM is not below 80%.
The same measure, in the same setting: next, `CC1(C)OB(O)c2ccc(C3=NOC(c4cc(Br)c(Cl)c(Br)c4)(C(F)(F)F)C3)cc21` (stereo not shown) [Compound 27, 5-(5-(3,5-Dibromo-4-chlorophenyl)-5-(trifluoromethyl)-4,5-dihydroisoxazol-3-yl)-3,3-dimethylbenzo[c][1,2]oxaborol-1(3H)-ol]: not below 80%; `CC1(C)OB(O)c2ccc(C3=NOC(c4ccc(F)c(Cl)c4)(C(F)(F)F)C3)cc21` (stereo not shown) [Compound 19, 5-(5-(3-Chloro-4-fluorophenyl)-5-(trifluoromethyl)-4,5-dihydroisoxazol-3-yl)-3,3-dimethylbenzo[c][1,2]oxaborol-1(3H)-ol]: not below 80%; `CC1(C)OB(O)c2ccc(C3=NOC(c4ccc(F)c(C(F)(F)F)c4)(C(F)(F)F)C3)cc21` (stereo not shown) [Compound 24, 5-(5-(4-Fluoro-3-(trifluoromethyl)phenyl)-5-(trifluoromethyl)-4,5-dihydroisoxazol-3-yl)-3,3-dimethylbenzo[c][1,2]oxaborol-1(3H)-ol]: not below 80%.
Still for that read-out and setting: next, `CC1(C)OB(O)c2ccc(C3=NOC(c4cc(F)c(Cl)c(F)c4)(C(F)(F)F)C3)cc21` (stereo not shown) [Compound 30, 5-(5-(4-Chloro-3,5-difluorophenyl)-5-(trifluoromethyl)-4,5-dihydroisoxazol-3-yl)-3,3-dimethylbenzo[c][1,2]oxaborol-1(3H)-ol]: not below 80%.
Same read-out and setting: then `CC1(C)OB(O)c2ccc(C3=NOC(c4ccc(Cl)c(Cl)c4)(C(F)(F)F)C3)cc21` (stereo not shown) [Compound 23, 5-(5-(3,4-Dichlorophenyl)-5-(trifluoromethyl)-4,5-dihydroisoxazol-3-yl)-3,3-dimethyl-benzo[c][1,2]oxaborol-1(3H)-ol], with not below 80%.
For `CC1(C)OB(O)c2ccc(C3=NOC(c4cc(Br)c(F)c(Br)c4)(C(F)(F)F)C3)cc21` (stereo not shown) [Compound 32, 5-(5-(3,5-Dibromo-4-fluorophenyl)-5-(trifluoromethyl)-4,5-dihydroisoxazol-3-yl)-3,3-dimethylbenzo[c][1,2]oxaborol-1(3H)-ol], the mortality at 300 µM was not below 80%.

Values taken from patent publication US9156860B2, “Boron-containing small molecules” (Anacor Pharmaceuticals, Inc., priority 2011, dated 2015).
